The values below come from patent publication US7759504B2, “Triarylamine derivative” (Fujifilm Corporation, priority 2007, dated 2010).

Holding throughout (format): physicochemical
A short description of data set [1]: Heat resistance of PMMA film sample (colorant residual rate). The following applies: 80° C. for 400 hours; 5% by weight in PMMA film; absorbance at maximum absorption wavelength after/before treatment. As for the experimental part: (§1) Into 25 ml of dichloromethane were dissolved 2.5 g of PMMA, and 0.125 g of the triarylamine derivative, and the solution was coated on a 100 μm-thick PET film. This was dried at 80° C. for 2 hours under reduced pressure to prepare a sample for assessment having a thickness of from 2 to 3 μm. The sample for assessment contained the triarylamine derivative at 5% by weight based on PMMA.
The sample for assessment obtained above was heat-treated at 80° C. for 400 hours. The absorbance of the assessment sample at the maximum absorption wavelength of the triarylamine derivative (colorant) was measured, and a colorant residual rate (%) was obtained as a ratio of the absorbance after heat treatment relative to the absorbance before heat treatment.

A short description of data set [2]: Wet heat resistance of PMMA film sample (colorant residual rate). The following applies: 60° C. and relative humidity of 90% for 200 hours; 5% by weight in PMMA film; absorbance after/before treatment. The method, then: as §1
The sample for assessment obtained above was subjected to wet heat treatment at 60° C. and a relative humidity of 90% for 200 hours. The absorbance of the assessment sample at the maximum absorption wavelength of the triarylamine derivative (colorant) was measured, and a colorant residual rate (%) was obtained as a ratio of the absorbance after wet heat treatment relative to the absorbance before wet heat treatment.

A short description of data set [3]: Light resistance of PMMA film sample (colorant residual rate). The conditions noted are these: 170 hours xenon lamp (170 thousands lux, UV cut filter); 5% by weight in PMMA film; absorbance after/before treatment. The method, then:
as §1
The sample for assessment obtained above was irradiation-treated for 170 hours with a xenon lamp (170 thousands lux, using an UV cut filter). The absorbance of the assessment sample at the maximum absorption wavelength of the triarylamine derivative (colorant) was measured, and a colorant residual rate (%) was obtained as a ratio of the absorbance after irradiation treatment relative to the absorbance before irradiation treatment.

Data set [4] can be described thus: Solubility in 2-butanone (MEK).

With `CCCCN(CCCC)c1ccc([N+](=C2C=CC(=[N+](CCCC)CCCC)C=C2)c2ccc(N(CCCC)CCCC)cc2)cc1` [Comparative Example, reference compound], the “Heat Resistance (colorant residual rate)” value in data set [1] was found to be 80%. The “Wet Heat Resistance (colorant residual rate)” value in data set [2] was 45%. For the same molecule, in data set [3], the “Light Resistance (colorant residual rate)” value is 98%. Besides, the “Solubility (w/v)” value in data set [4] is on record as 16% w/v %.
The corresponding values for `CCCCN(CCCC)c1ccc([N+](=C2C=CC(=[N+](CCCC)CCCC)C=C2C)c2ccc(N(CCCC)CCCC)cc2)cc1` [Compound 79] are 87%, 89%, 99% and 32% w/v %.
The like results for `CCCCN(CCCC)c1ccc([N+](=C2C=CC(=[N+](CCCC)CCCC)C=C2C)c2ccc(N(CCCC)CCCC)cc2)cc1` [Compound 28] were, in that order, 82%, 48%, 98% and 23% w/v %.
